In US11185527B2, “Methods and compositions relating to steroid hormone receptor-dependent cancers” (Wayne State University, priority 2017, dated 2021):

Assays:
C4-2 cells = assay: Cell growth assay; type: cell-based
Source text: FIG. 16C is a graph showing the effect of 5′-Fluoro-5,3′-Dihydroxyflavone at various concentrations on growth of C4-2 cells.

[1] = system: DU145 (prostate cancer cells), AR-negative; assay: Cell monolayer growth assay (MTT); type: cell-based
Protocol: FIG. 12A is a graph showing the effect of KCI807 on in vitro growth of AR-negative cell line Du145 cells measured by the MTT assay. All values were plotted relative to the Day zero value.
FIG. 16E is a graph showing the effect of 5′-Fluoro-5,3′-Dihydroxyflavone at various concentrations on growth of DU145 cells.
Cells were trypsinized and 3000-4000 cells/well were seeded in 96-well plates coated with poly-D-lysine. The cells were seeded in phenol red-free medium supplemented with 10% FBS, 100 units/ml penicillin, 100 μg/ml streptomycin, 2 mM L-glutamine mixture and sodium pyruvate (1 mM) for LNCaP cells and phenol red-free medium supplemented with 10% FBS, 100 units/ml penicillin, 100 μg/ml streptomycin and 2 mM L-glutamine mixture for VCaP, 22Rv1, DU145, HeLa, HEK293 and H1650 cells. The cells were grown at 37° C. in 5% CO2. Twenty four hours after seeding in the 96-well plates, the cells were treated with the indicated concentration of KCI807 or DMSO (vehicle). The cells were re-treated on Day 3 by removing half the volume of medium and replacing it with fresh treated medium. Cell viability was determined using the MTT assay from day zero until day five. […] The formazan crystal sediments were dissolved in 100 μL of DMSO, and the absorbance at 570 nm was measured using the BioTek Synergy 2 Microplate Reader (BioTek, Winooski, Vt.). […]

[2] = system: activation of ELK1 by MEK/ERK; assay: Gal4-ELK1 reporter activation by constitutively active MEK1 in transfected HeLa cells; type: cell-based; conditions: HeLa cells with caMEK1; trametinib 1 μM, KCI807 20 μM
Protocol: FIG. 8 is a graph showing results of co-transfection of HeLa cells with the Gal4-TATA-Luc construct and the expression plasmid for the Gal4-ELK1 fusion protein. In addition the cells were transfected with an expression plasmid for a constitutively active MEK1 protein (caMEK1). The cells were then treated with the MEK1 inhibitor, trametinib (1 μM), KCI807 (20 μM), or vehicle (DMSO). Cells were harvested 48h post transfection and luciferase activity was measured. In all panels, the error bars represent standard deviation of experimental triplicates. *P<0.001
Hela Cells were plated in a 24-well plate at a concentration of 75,000 cells/well in antibiotic-free red DMEM. The following day the cells were transfected with a total of 300 ng of plasmid DNA/well using Lipofectamine 2000. The cells were incubated for 24h then lysed using luciferase assay lysis buffer 5X from Promega. The luciferase activity of the cell lysates were measured using firefly substrate from Promega and a luminometer (Lumat LB9501, Berthold, Wildbad, Germany).
As a secondary test of target selectivity, the effect of 5,3′-dihydroxyflavone on activation of ELK1 by MEK/ERK was examined using HeLa cells co-transfected with the Gal4-TATA-Luc construct, the expression plasmid for the Gal4-ELK1 fusion protein and either an expression plasmid for a constitutively active MEK1 protein (caMEK1) or vector control.

[3] = system: ELK1-dependent promoter activation by AR; assay: Primary screening assay: luciferase reporter in recombinant HeLa cells (Gal4-TATA-Luc, Gal4-ELK1, AR) treated with testosterone; type: cell-based, human
Source text: FIG. 6A is a schematic diagram of the reporter system for the primary screening assay. Recombinant HeLa cells used in this assay harbor the Gal4-TATA-Luc promoter-reporter, and stably express a Gal4-ELK1 fusion protein as well as the androgen receptor (AR). Gal4-ELK1 is bound to the Gal4 elements in the promoter. In the absence of testosterone (small circle), AR is localized in the cytoplasm. When testosterone is present it binds to AR causing AR to translocate to the nucleus where it then binds to Gal4-ELK1 and activates the downstream luciferase reporter.
HeLa HLR cells obtained from Dr. Johann Hofman (Innsbruck Medical University), which were originally designed to serve as a cell-based assay system to measure modulation of MAPK activity. HeLa HLR cells have a stably integrated minimal promoter-luciferase reporter containing five upstream Gal4 elements (Gal4-TATA-Luc) and also constitutively express a Gal4-ELK1 fusion protein in which the Gal4 DNA binding domain is substituted for the ETS DNA binding domain of ELK1. In order to produce recombinant cell lines for high throughput screening and counter screening of small molecule libraries, HeLa HLR were stably transduced with a vector expressing the full-length AR. A sequence encoding the full length AR (SEQ ID NO:9) was subcloned from the pCMV expression vector (Origene) into the pCDH-CMV-MCS-EF1-Puro cDNA Cloning and Expression Vector (System Biosciences) at NheI (upstream) and BamHI (downstream) sites. The lentiviral vector expressing full length AR was then packaged in lentivirus and the HeLa HLR cells were infected as described below in the sub-section “Lentivirus-mediated-Transduction.” After 72 hours (h) of infection, 2 ug/mL of puromycin was added to the culture medium to select for the transduced cells. The cells were plated at low density for colony formation (20-40 colonies) in a 100 mm dish. Clonal cells were isolated using cloning cylinders from CORNING (Cat. #3166-8). The selected clones were further expanded and then tested for luciferase induction by testosterone. The clone that gave the greatest luciferase signal to noise ratio in response to testosterone treatment was then chosen for use in the primary screening assay for high throughput small molecule screening.
For high throughput screening, recombinant primary screening cells were first depleted of hormone by growing them for 24h in medium in which the serum used was heat-inactivated and charcoal-stripped. The cells were then plated in 384-well white flat bottom plates (5,000 cells/well) (Corning Product #3570) using a Multidrop (Thermo Fisher Scientific, Waltham, Mass.). The plates were then incubated for 24h prior to adding test compounds. The following day test compounds from the LOPAC, Prestwick, or Maybridge Hitfinder libraries were added precisely in a 0.2 μL volume in the test wells using a Biomek FX liquid handler (Beckman Coutler, Break, Calif.) to achieve final media concentration of 10 μM of each test compound. Using the Multidrop (ThermoLab Systems, Helsinki, Finland), testosterone was added in addition to the test compounds to achieve a final media concentration of 10 nM. As the test compounds were re-constituted from powder stocks using dimethyl sulfoxide (DMSO) as the solvent, the final media concentration of DMSO was 0.4% v/v. For the assay negative control on each plate, one row of wells on each plate contained 10 nM testosterone and 0.4% v/v of DMSO. For the assay positive control on each plate, one row of wells on each plate contained 10 nM testosterone and 10 uM enzalutamide dissolved in DMSO (0.4% v/v of DMSO in the wells). The plates were incubated for 24h at 37° C. in 5% CO2. The medium was then aspirated leaving a residual volume 10 μl using an Elx 405-plate washer (Bio Tek U.S.). Then, 10 uL of the assay reagent Bright-Glo (Promega Corp., Madison Wis.) was added to each well. […]

SMILES | growth inhibition of C4-2 cells (C4-2 cells) | growth of DU145 cells [1] | inhibition of luciferase reporter activation by MEK1 (activation of ELK1 by MEK/ERK) [2] | selectivity for ELK1-dependent versus ARE-dependent promoter activity ([3]; primary versus counter screening assay) | inhibition of ELK1-dependent promoter activation by AR (in words) ([3]; testosterone-treated recombinant HeLa cells, luciferase)
O=c1cc(-c2cc(O)cc(F)c2)oc2cccc(O)c12 [5′-fluoro-5,3′-dihydroxyflavone] | inhibited growth | did not inhibit growth | did not affect | more selective for the ELK1-dependent promoter activity than ARE-dependent activity | 
O=c1cc(-c2cccc(O)c2)oc2cccc(O)c12 [KCI807, 5,3′-dihydroxyflavone] |  | did not appreciably affect the growth | did not inhibit |  | 
CNC(=O)c1ccc(N2C(=S)N(c3ccc(C#N)c(C(F)(F)F)c3)C(=O)C2(C)C)cc1F [enzalutamide] |  |  |  |  | completely suppressed the signal
